Measured values published in US20240245711A1, “A 19-NOR C3,3-DISUBSTITUTED C21-N-PYRAZOLYL STEROID FOR THE TREATMENT OF MAJOR DEPRESSIVE DISORDER” (Sage Therapeutics, Inc., priority 2021, published 2024).

System: adult subjects with Major Depressive Disorder
Experiment: Phase 3 open-label 1-year study: HAM-D total score, response and remission
Format: in vivo, human
Source text: Secondary Objective: To assess the need for re-treatment with Compound (1) following initial treatment in adults with MDD currently experiencing an MDE over a 1-year period, and to assess the response of initial treatment and re-treatment(s) with Compound (1) following an initial 2-week treatment period in adults with MDD currently experiencing an MDE over a 1-year period.
Secondary Endpoints: The need for re-treatment with Compound (1) as assessed by: time to first re-treatment (Kaplan-Meier curves), number of subjects achieving the requirements for re-treatment, number of re-treatment cycles for each subject, the response of initial treatment and/or re-treatment as assessed by: change from baseline in the 17-item Hamilton Rating Scale for Depression (HAM-D) total score at the end of each 14-day treatment (initial and/or re-treatment) period, HAM-D response at the end of each 14-day treatment (initial and/or re-treatment) period, defined as a ≥50% reduction in HAM-D score from baseline, HAM-D remission at the end of each 14-day treatment (initial and/or re-treatment) period, defined as HAM-D total score≤7, Clinical Global Impression-Improvement (CGI-I) response, defined as “much improved” or “very much improved”, at the end of each 14-day treatment (initial and/or re-treatment) period, change from baseline in Clinical Global Impression-Severity (CGI-S) score at the end of each 14-day treatment (initial and/or re-treatment) period.
Study Population: Subjects were 18-75 years old, diagnosed with major depressive disorder (MDD) with a MADRS total score of ≥28 and a HAM-D total score of ≥20 at Screening and Day 1 (prior to dosing).
Treatment Groups: The 30 mg and 50 mg dose groups were separated by time of enrollment. The study is comprised of two cohorts: one with Compound (1) 30 mg as a starting dose (30 mg Cohort: n=725), an initial cohort with Compound (1) 50 mg as a starting dose (50 mg Cohort: n=199). A patient receiving Compound (1) 30 mg could be dose reduced to 20 mg and patients receiving Compound (1) 50 mg could be dose reduced to 40 mg (based on tolerability). In all cohorts, Compound (1) is self-administered by patients as an oral therapy once nightly with food for 14 days.
Eligible subjects were given Compound (1)—to be taken at home in the evening with meal.
The cohorts pertaining to the different doses that the subjects received were defined as following: • 50 mg cohort: This cohort includes subjects who have initiated treatment with 50 mg and received re-treatment with 50 mg only. • 30 mg cohort: This cohort includes subjects who have initiated treatment with 30 mg regardless of the dose they have received in re-treatments. • Low dose cohort: This cohort includes subjects who have initiated treatment with 30 mg and received re-treatment with 30 mg only. • Dose switch cohort: This cohort includes subjects who have received initial treatment with 30 mg and at least one subsequent re-treatment with 50 mg. • Study Period X: starts on the date of the first dose of Compound (1) in cycle X and goes up to one day prior to the first dose of the next cycle. In some embodiments, X is any number from 1 to 5. • Treatment Period X: starts on the date of the first dose of Compound (1) in cycle X and goes up to one day after the last dose in cycle X. In some embodiments, X is any number from 1 to 5. • Treatment Cycle X: starts on the date of the first dose of Compound (1) in cycle X and goes up to 14 days after the last dose in cycle X. The treatment cycles may be denoted as C1-C5. • Observation period X: starts the day after Treatment Cycle X ends and goes up to one day prior to the start of next treatment cycle. In some embodiments, X is any number from 1 to 5.
Analysis Sets: The safety set was defined as all subjects who were administered study drug. The period-specific safety set includes subjects in the safety set who were administered study drug in the corresponding treatment cycle. […]

[1] = Day 15 of first treatment cycle, overall study population
[2] = Dose Switch Cohort (FAS), first dose in cycle 30 mg, Cycle 2, Day 15
[3] = Dose Switch Cohort (FAS), first dose in cycle 30 mg, Cycle 3, Day 15
[4] = Dose Switch Cohort (FAS), first dose in cycle 30 mg, Cycle 4, Day 15
[5] = Low Dose Cohort (FAS), of Non-responders at D15 in C3 (N = 33)
[6] = Low Dose Cohort (FAS), of Non-responders at D15 in C4 (N = 18)
[7] = Low Dose Cohort (FAS), of Non-responders at D15 in C5 (N = 7)
[8] = Low Dose Cohort (FAS), subjects dosed in Cycle 2 (199), Cycle 1, Day 15
[9] = Low Dose Cohort (FAS), subjects dosed in Cycle 2 (199), Cycle 1, Day 28
[10] = Low Dose Cohort (FAS), subjects dosed in Cycle 2 (199), Cycle 2, Day 15
[11] = Low Dose Cohort (FAS), subjects dosed in Cycle 2 (199), Cycle 2, Day 28
[12] = Low Dose Cohort (FAS), subjects dosed in Cycle 3 (83), Cycle 1, Day 15
[13] = Low Dose Cohort (FAS), subjects dosed in Cycle 3 (83), Cycle 2, Day 15
[14] = Low Dose Cohort (FAS), subjects dosed in Cycle 3 (83), Cycle 2, Day 28
[15] = Low Dose Cohort (FAS), subjects dosed in Cycle 3 (83), Cycle 3, Day 15
[16] = Low Dose Cohort (FAS), subjects dosed in Cycle 3 (83), Cycle 3, Day 28

**Q.** How did the “Withdrawn in Treatment Cycle 1: Exit for non-response, n (%)” value (50 mg Cohort (n = 199)) turn out when `C[C@@]1(O)CC[C@H]2[C@H](CC[C@@H]3[C@@H]2CC[C@]2(C)[C@@H](C(=O)Cn4cc(C#N)cn4)CC[C@@H]32)C1` [Compound (1), 1-(2-((3R,5R,8R,9R,10S,13S,14S,17S)-3-hydroxy-3,13-dimethylhexadecahydro-1H-cyclopenta[a]phenanthren-17-yl)-2-oxoethyl)-1H-pyrazole-4-carbonitrile] was run?
**A.** The value was 31 (15.6%).

**Q.** What about the “Subjects achieving remission (HAM-D less than or equal to 7)” value (50 mg Cohort, Day 15 Treatment Cycle 1, Example 4, 80 subjects of 199) of the same compound?
**A.** Its value is 40.2%.

**Q.** What about the “Subjects achieving response (at least 50% reduction in HAM-D from baseline)” value (50 mg Cohort, Day 15 Treatment Cycle 1, Example 4, about 149 subjects of 199) of the same compound?
**A.** Its value is 74.9%.

**Q.** And the HAMD-17 remission rate [1]?
**A.** The HAMD-17 remission rate was 40.8%.

**Q.** What about the HAMD-17 response rate [1] of the same compound?
**A.** Its HAMD-17 response rate is 75.0%.

**Q.** What about the “Mean (SD) CFB in HAMD-17” value (Day 15 of first treatment cycle, overall study population (30 mg and 50 mg Cohorts)) of the same compound?
**A.** Its value is −15.4 (6.9).

**Q.** What about the “Responders at D15 in C1 who did not discontinue in C1 (FAS), % of subjects dosed in C1” value (Dose Switch Cohort (80 dosed)) of the same compound?
**A.** The value was 80 (100%).

**Q.** What about the “HAM-D Total Score, Mean Change from Period-Specific Baseline” value (“HAM-D Total Score, Mean Change” for short) [2] of the same compound?
**A.** Its value is −15.5.

**Q.** And the “HAM-D Total Score, Mean Percent Change from Period-Specific Baseline” value (from here on “HAM-D Total Score, Mean Percent Change”) [2]?
**A.** The value was −59.1.

**Q.** What about the “HAM-D Total Score, Mean Change” value [3] of the same compound?
**A.** Its value is −15.8.

**Q.** What about the “HAM-D Total Score, Mean Percent Change” value [3] of the same compound?
**A.** The value was −60.0.

**Q.** And the “HAM-D Total Score, Mean Change” value [4]?
**A.** The value was −14.8.

**Q.** What about the “HAM-D Total Score, Mean Percent Change” value [4] of the same compound?
**A.** Its value is −60.0.

**Q.** What about the “Responders at D15 in C1 who did not discontinue in C1 (FAS), % of subjects dosed in C1” value (Low Dose Cohort (645 dosed)) of the same compound?
**A.** Its value is 409 (63.4%).

**Q.** And the “HAM-D Non-responder rate at D15 (of subjects dosed in cycle)” value (“HAM-D Non-responder rate at D15” below) (Low Dose Cohort (FAS), C2 (N = 70 of 199))?
**A.** Its value is “(N = 70, 35.2%)”.

**Q.** What about the “HAM-D Non-responder rate at D15” value (Low Dose Cohort (FAS), C3 (N = 33 of 83)) of the same compound?
**A.** The value was “(N = 33, 39.8%)”.

**Q.** And the “HAM-D Non-responder rate at D15” value (Low Dose Cohort (FAS), C4 (N = 18 of 43))?
**A.** The value was “(N = 18, 41.9%)”.

**Q.** And the “HAM-D Non-responder rate at D15” value (Low Dose Cohort (FAS), C5 (N = 7 of 20))?
**A.** The value was “(N = 7, 35%)”.

**Q.** And the “Status in C2: Non-responder” value [5]?
**A.** The value was “(57.6%)”.

**Q.** And the “Status in C2: Responder” value [5]?
**A.** Its value is “(42.4%)”.

**Q.** And the “Status in C2: Non-responder” value [6]?
**A.** Its value is “(55.6%)”.

**Q.** What about the “Status in C2: Responder” value [6] of the same compound?
**A.** The value was “(44.4%)”.

**Q.** And the “Status in C3: Non-responder” value [6]?
**A.** Its value is 9 (50.0%).

**Q.** And the “Status in C3: Responder” value [6]?
**A.** The value was “(50.0%)”.

**Q.** And the “Status in C2: Non-responder” value [7]?
**A.** The value was “(85.7%)”.

**Q.** What about the “Status in C2: Responder” value [7] of the same compound?
**A.** The value was “(14.3%)”.

**Q.** What about the “Status in C3: Non-responder” value [7] of the same compound?
**A.** Its value is 3 (42.9%).

**Q.** And the “Status in C3: Responder” value [7]?
**A.** The value was “(57.1%)”.

**Q.** What about the “Status in C4: Non-responder” value [7] of the same compound?
**A.** The value was 5 (71.4%).

**Q.** What about the “Status in C4: Responder” value [7] of the same compound?
**A.** The value was 1 (14.4%).

**Q.** And the “HAM-D Total Score, Mean Change” value [8]?
**A.** The value was −17.4.

**Q.** And the “HAM-D Total Score, Mean Percent Change” value [8]?
**A.** The value was −70.0.

**Q.** And the “HAM-D Total Score, Mean Change” value [9]?
**A.** The value was −13.8.

**Q.** What about the “HAM-D Total Score, Mean Percent Change” value [9] of the same compound?
**A.** The value was −55.2.

**Q.** And the “HAM-D Total Score, Mean Change” value [10]?
**A.** Its value is −12.3.

**Q.** And the “HAM-D Total Score, Mean Percent Change” value [10]?
**A.** Its value is −52.6.

**Q.** What about the “HAM-D Total Score, Mean Change” value [11] of the same compound?
**A.** Its value is −11.5.

**Q.** And the “HAM-D Total Score, Mean Percent Change” value [11]?
**A.** The value was −49.1.

**Q.** What about the “HAM-D Total Score, Mean Change” value [12] of the same compound?
**A.** The value was −17.2.

**Q.** And the “HAM-D Total Score, Mean Percent Change” value [12]?
**A.** The value was −68.8.

**Q.** What about the “HAM-D Total Score, Mean Change” value (Low Dose Cohort (FAS), subjects dosed in Cycle 3 (83), Cycle 1, Day 28) of the same compound?
**A.** Its value is 83, −12.7, —.

**Q.** What about the “HAM-D Total Score, Mean Change” value [13] of the same compound?
**A.** Its value is −12.7.

**Q.** And the “HAM-D Total Score, Mean Percent Change” value [13]?
**A.** The value was −52.9.

**Q.** What about the “HAM-D Total Score, Mean Change” value [14] of the same compound?
**A.** The value was −11.2.

**Q.** And the “HAM-D Total Score, Mean Percent Change” value [14]?
**A.** Its value is −46.5.

**Q.** And the “HAM-D Total Score, Mean Change” value [15]?
**A.** The value was −12.5.

**Q.** And the “HAM-D Total Score, Mean Percent Change” value [15]?
**A.** The value was −52.4.

**Q.** What about the “HAM-D Total Score, Mean Change” value [16] of the same compound?
**A.** Its value is −11.9.

**Q.** What about the “HAM-D Total Score, Mean Percent Change” value [16] of the same compound?
**A.** The value was −49.8.

**Q.** And the “HAM-D Total Score, Mean Change” value (Low Dose Cohort (FAS), subjects dosed in Cycle 4 (43), Cycle 1, Day 15)?
**A.** Its value is −17.0.
